Our source for the melting point and IC50 values is patent US8211916B2, “N- and O-substituted 4-[2-(diphenylmethoxy)-ethyl]-1-[(phenyl)methyl]piperidine analogs and methods of treating CNS disorders therewith” (Wayne State University, priority 2000, dated 2012).

Series [1] concerns the target rat DAT (Rattus norvegicus, UniProt P23977). As to the kind of experiment: Rat DAT binding, [3H]Win 35,428, striatal membranes. As to conditions: read-out: DAT, IC50.
Protocol: (§1) Briefly, rat striatal membranes were incubated with radioligand and inhibitor for 2 h on ice in a sodium phosphate buffer at a final Na^+ concentration of 30 nM, pH 7.4, at room temperature. The assays were terminated by filtration through glass fiber filtermats (Wallac, Inc., Gaithersburg, Md.), presoaked in 0.05% (v/v) polyethyleneimine, with a MACH3-96 Tomtec harvester (Wallac, Inc.). Filters were assayed for radioactivity in a Microbeta Plus liquid scintillation counter (Wallac, Inc.).
Series [2] deals with T1, rat SERT (Rattus norvegicus, UniProt P31652).
T1 construct: from tissue; host or cells: rat striatum (membranes)
T1 sequence (P31652 whole entry): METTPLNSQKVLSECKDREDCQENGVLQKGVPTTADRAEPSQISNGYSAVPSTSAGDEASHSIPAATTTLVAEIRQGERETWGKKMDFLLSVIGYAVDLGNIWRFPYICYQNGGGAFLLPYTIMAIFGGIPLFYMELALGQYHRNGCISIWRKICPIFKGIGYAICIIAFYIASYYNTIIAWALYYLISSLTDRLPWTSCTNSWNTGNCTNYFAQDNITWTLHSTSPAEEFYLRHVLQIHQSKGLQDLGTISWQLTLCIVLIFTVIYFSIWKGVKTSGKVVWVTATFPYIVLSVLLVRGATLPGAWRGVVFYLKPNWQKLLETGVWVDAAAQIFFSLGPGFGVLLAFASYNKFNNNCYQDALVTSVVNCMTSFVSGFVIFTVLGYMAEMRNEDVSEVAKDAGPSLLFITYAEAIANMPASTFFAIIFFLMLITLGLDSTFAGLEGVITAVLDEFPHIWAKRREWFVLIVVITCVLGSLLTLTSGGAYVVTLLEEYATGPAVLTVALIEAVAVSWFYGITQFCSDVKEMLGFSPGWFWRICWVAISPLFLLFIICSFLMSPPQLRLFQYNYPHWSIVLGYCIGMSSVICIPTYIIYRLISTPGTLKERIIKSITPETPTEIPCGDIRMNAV
The series can be described thus: Rat SERT binding, [3H]citalopram, striatal membranes. The settings on record: Table 1; read-out: SERT, IC50.
Protocol: as §1

Structures are written as SMILES. Counter-ions that a name gives are not always drawn. Like-named read-outs stand apart in the source and are kept apart here.

rat DAT, sequence (P23977 whole entry): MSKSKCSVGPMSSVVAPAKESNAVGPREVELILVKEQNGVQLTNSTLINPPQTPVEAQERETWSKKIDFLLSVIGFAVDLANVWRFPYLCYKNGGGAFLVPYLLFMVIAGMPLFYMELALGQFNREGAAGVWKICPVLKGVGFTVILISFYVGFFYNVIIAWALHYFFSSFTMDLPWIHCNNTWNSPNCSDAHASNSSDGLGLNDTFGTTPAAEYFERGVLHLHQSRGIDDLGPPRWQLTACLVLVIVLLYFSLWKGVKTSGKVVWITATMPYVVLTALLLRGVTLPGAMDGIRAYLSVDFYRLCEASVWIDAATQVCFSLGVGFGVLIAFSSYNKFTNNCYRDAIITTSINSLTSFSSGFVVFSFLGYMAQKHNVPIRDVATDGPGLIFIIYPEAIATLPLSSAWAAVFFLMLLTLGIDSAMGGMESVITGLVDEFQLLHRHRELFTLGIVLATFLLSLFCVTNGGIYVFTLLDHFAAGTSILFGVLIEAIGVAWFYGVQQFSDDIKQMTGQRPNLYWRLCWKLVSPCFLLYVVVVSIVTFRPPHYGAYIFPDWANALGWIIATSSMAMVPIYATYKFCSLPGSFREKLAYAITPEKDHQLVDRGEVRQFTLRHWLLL

The compound `OC1CN(Cc2ccc(F)cc2)CCC1CCOC(c1ccccc1)c1ccccc1` (racemic) (as salt: oxalate) [Example 16, racemic trans-3-hydroxy-4-[2-diphenylmethoxy)ethyl]-1-[(4-fluorophenyl)methyl]piperidine] showed a melting point of 143 to 150 °C.
With `FC(F)(F)c1ccc(CN2CCC(CCOC(c3ccccc3)c3ccccc3)CC2)cc1` [Example 3, 4-[2-(Diphenylmethoxy)ethyl]-1-[((4-trifluoromethyl)phenyl)methyl]piperidine], the IC50 in series [1] turned out to be 32.1 ± 2.1 nM; in series [2], 2260 ± 144 nM.
In the case of `CC(OCCC1CCN(Cc2ccc(F)cc2)CC1)c1ccccc1` (centres unmarked) [4-[((1-phenylethoxy)ethyl]-1-[(4-fluorophenyl)methyl]piperidine], the results for the half-maximal inhibitory concentration (IC50) in series [1] (Table 1) and in series [2] were 751 ± 61.6 nM and 5860 ± 595 nM, respectively.
Take `Fc1ccc(CN2CCC(CCOC(c3ccccc3)c3ccccc3)CC2)cc1F` (as salt: oxalate) [Example 2, 4-[2-(Diphenylmethoxy)ethyl]-1-[(3,4-difluorophenyl)methyl]piperidine]: the melting point lay in the range of 158 to 159 °C.
Turning to `Fc1ccc(C(NCC2CCN(CCc3ccccc3)CC2)c2ccc(F)cc2)cc1` (as salt: HCl) [Example 12, 4-[(Bis(4-fluorophenyl)methylamino)methyl]-1-[2-(phenyl)ethyl]piperidine], the melting point is 214 to 215 °C.
As for `Fc1ccc(CN2CCC(CCNC(c3ccccc3)c3ccccc3)CC2)cc1F` (as salt: HCl) [Example 8, 4-[2-((Diphenylmethyl)amino)ethyl]-1-[(3,4-difluorophenyl)methyl]piperidine], the melting point fell in the range of 280 to 281 °C.
Compound `O=C1CN(Cc2ccc(F)cc2)CCC1CCOC(c1ccccc1)c1ccccc1` (racemic) (as salt: oxalate) (hydrate or solvate) [Example 18, racemic 3-Keto-4-[2-(diphenylmethoxy)ethyl]-1-[(4-fluorophenyl)methyl]piperidine] returned a melting point of 104 to 109 °C.
Still for that read-out and setting: as for `Fc1cccc(CN2CCC(CCOC(c3ccccc3)c3ccccc3)CC2)c1` (as salt: oxalate) [Example 1, 4-[2-(Diphenylmethoxy)ethyl]-1-[(3-fluorophenyl)methyl]piperidine], the figure is 150 to 151 °C.
As to `CN(CCC1CCN(Cc2ccccc2)CC1)C(c1ccccc1)c1ccccc1` [Example 10, 4-[2-((Diphenylmethyl)-N-methylamino)ethyl]-1-(4-phenylmethyl)piperidine], the values for the concentration for half-maximal inhibition (IC50) in series [1] (Table 1) and in series [2] were 213 ± 3 nM and 1660 ± 469 nM, respectively.
The matching figures for `CN(CC1CCN(Cc2ccc(F)cc2)CC1)CC(c1ccccc1)c1ccccc1` [Example 13]: 94 ± 12.5 nM and 2520 ± 230 nM.
Compound `CS(=O)(=O)Nc1ccc(CN2CCC(CCOC(c3ccccc3)c3ccccc3)CC2)cc1` (as salt: oxalate) [Example 6, 4-[2-(Diphenylmethoxy)ethyl]-1-[((4-methylsulfonylamino)phenyl)methyl]piperidine] had a melting point of 122 to 124 °C.
In the case of `CC(NCCC1CCN(Cc2ccc(F)cc2)CC1)c1ccccc1` (centres unmarked) [Example 14, 4[2-[(1-(phenyl)ethyl)amino]ethyl]-1-[(4-fluorophenyl)methyl]piperidine], the results for the IC50 in series [1] (Table 1) and in series [2] were 295 ± 40.9 nM and 963 ± 38.5 nM, respectively.
As for `O=C(Cc1ccccc1)N1CCC(CCOC(c2ccccc2)c2ccccc2)CC1` [Example 5, 4-[2-(Diphenylmethoxy)ethyl]-1-[(phenylmethyl)carbonyl]piperidine], the values for the IC50 in series [1] and in series [2] were 2160 ± 54 nM and more than 1000 nM, respectively.
As to `Fc1cccc(CN2CCC(CCOC(c3ccccc3)c3ccccc3)CC2)c1` [Example 1, 4-[2-(Diphenylmethoxy)ethyl]-1-[(3-fluorophenyl)methyl]piperidine], the values for the concentration for half-maximal inhibition (IC50) in series [1] (Table 1) and in series [2] were 23.4 ± 3.8 nM and 1150 ± 43.4 nM, respectively.
As for `Fc1ccc(C(NCC2CCN(CCc3ccccc3)CC2)c2ccc(F)cc2)cc1` [Example 12, 4-[(Bis(4-fluorophenyl)methylamino)methyl]-1-[2-(phenyl)ethyl]piperidine], the half-inhibitory concentration (IC50) was 65.3 ± 3.2 nM in series [1] and 1100 ± 246 nM in series [2].

As usually defined, the melting point is the temperature, or range, at which the solid turns liquid. The term IC50 denotes the concentration that gives 50% inhibition.
